The record followed here is ChEMBL document CHEMBL5614382, “Discovery of a new 1-(phenylsulfonyl)-1H-indole derivative targeting the EphA2 receptor with antiproliferative activity on U251 glioblastoma cell line” (Eur J Med Chem, 2024).

What is called pIC50 is −log10 of the IC50, conventionally taken in molar units.

Each structure is given as a SMILES string. pIC50: −log10 of the molar value.

For one assay, the target named is Ephrin type-A receptor 5 (Rattus norvegicus, UniProt P54757). The assay is described as follows: Displacement of biotinylated Fc-tagged ephrin-A1 from recombinant N/C-terminal 6-his tagged rat EphA5 (Ser 58 to Gln573 residues) preincubated for 1 hr followed by ephrin-A1-Fc addition and measured after 4 to 5 hrs by ELISA assay. Background: An ELISA detects its analyte on a solid surface through an enzyme-linked reagent.
Sequence of Ephrin type-A receptor 5 (P54757 whole entry): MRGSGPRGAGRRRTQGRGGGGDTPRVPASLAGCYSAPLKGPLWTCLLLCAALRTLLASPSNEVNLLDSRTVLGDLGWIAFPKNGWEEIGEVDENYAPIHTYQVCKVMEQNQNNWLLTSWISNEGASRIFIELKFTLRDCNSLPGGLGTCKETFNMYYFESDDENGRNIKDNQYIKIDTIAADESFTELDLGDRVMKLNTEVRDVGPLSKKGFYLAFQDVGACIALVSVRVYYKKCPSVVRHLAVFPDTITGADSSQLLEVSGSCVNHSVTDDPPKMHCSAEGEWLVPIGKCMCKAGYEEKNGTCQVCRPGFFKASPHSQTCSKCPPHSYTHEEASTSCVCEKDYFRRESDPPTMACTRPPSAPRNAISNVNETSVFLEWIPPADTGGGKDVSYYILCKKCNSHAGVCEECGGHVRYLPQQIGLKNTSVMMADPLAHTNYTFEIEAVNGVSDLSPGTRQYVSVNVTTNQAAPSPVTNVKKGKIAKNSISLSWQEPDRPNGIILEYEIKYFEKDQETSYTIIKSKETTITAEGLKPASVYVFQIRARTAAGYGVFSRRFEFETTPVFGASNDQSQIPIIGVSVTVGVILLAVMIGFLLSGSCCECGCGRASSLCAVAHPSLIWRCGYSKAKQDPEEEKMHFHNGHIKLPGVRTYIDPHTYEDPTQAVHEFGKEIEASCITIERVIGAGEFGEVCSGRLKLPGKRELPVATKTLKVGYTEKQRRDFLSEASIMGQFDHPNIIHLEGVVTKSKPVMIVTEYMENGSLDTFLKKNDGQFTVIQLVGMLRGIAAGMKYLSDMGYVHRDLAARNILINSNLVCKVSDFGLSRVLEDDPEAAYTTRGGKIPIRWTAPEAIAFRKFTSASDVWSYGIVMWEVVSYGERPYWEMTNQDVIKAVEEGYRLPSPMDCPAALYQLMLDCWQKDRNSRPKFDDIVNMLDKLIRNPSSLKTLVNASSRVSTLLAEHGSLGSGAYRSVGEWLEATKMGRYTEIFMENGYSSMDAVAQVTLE

The next assay has as its target T1, Ephrin type-A receptor 3 (Mus musculus, UniProt P29319).
T1 sequence (P29319 whole entry): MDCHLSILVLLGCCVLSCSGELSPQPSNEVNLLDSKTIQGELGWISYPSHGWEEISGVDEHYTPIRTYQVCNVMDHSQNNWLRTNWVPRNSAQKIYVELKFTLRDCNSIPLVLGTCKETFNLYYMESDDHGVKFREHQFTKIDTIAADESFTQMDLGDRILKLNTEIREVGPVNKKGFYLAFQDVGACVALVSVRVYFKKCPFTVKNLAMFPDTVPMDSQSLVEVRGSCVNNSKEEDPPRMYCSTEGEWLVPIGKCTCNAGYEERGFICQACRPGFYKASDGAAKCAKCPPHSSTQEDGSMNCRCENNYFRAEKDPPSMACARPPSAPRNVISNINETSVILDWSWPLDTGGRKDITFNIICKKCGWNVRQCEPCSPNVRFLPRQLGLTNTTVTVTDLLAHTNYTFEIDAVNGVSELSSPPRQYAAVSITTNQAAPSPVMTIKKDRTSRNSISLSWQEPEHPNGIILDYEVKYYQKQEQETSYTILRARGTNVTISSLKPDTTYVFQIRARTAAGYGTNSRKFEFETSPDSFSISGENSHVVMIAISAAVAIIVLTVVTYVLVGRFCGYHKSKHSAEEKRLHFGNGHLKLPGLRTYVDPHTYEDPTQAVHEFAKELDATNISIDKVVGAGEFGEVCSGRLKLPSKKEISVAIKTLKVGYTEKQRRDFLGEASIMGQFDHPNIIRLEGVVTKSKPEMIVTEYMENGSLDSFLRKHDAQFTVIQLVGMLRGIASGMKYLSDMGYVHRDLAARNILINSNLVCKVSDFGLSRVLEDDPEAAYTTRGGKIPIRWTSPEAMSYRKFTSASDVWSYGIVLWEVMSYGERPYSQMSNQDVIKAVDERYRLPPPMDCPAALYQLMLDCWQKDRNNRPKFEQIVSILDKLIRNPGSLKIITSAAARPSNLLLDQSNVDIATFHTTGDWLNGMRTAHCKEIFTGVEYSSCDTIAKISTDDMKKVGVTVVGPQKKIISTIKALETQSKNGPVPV
Description: Displacement of biotinylated Fc-tagged ephrin-A1 from recombinant N/C-terminal 6-his tagged mouse EphA3 (Glu21 to His541 residues) preincubated for 1 hr followed by ephrin-A1-Fc addition and measured after 4 to 5 hrs by ELISA assay.

The target of another assay is Ephrin type-A receptor 4 (Mus musculus, UniProt Q03137). The assay is described as follows: Displacement of biotinylated Fc-tagged ephrin-A1 from recombinant N/C-terminal 6-his tagged mouse EphA4 (Val20 to Thr547 residues) preincubated for 1 hr followed by ephrin-A1-Fc addition and measured after 4 to 5 hrs by ELISA assay.
Sequence of Ephrin type-A receptor 4 (Q03137 whole entry): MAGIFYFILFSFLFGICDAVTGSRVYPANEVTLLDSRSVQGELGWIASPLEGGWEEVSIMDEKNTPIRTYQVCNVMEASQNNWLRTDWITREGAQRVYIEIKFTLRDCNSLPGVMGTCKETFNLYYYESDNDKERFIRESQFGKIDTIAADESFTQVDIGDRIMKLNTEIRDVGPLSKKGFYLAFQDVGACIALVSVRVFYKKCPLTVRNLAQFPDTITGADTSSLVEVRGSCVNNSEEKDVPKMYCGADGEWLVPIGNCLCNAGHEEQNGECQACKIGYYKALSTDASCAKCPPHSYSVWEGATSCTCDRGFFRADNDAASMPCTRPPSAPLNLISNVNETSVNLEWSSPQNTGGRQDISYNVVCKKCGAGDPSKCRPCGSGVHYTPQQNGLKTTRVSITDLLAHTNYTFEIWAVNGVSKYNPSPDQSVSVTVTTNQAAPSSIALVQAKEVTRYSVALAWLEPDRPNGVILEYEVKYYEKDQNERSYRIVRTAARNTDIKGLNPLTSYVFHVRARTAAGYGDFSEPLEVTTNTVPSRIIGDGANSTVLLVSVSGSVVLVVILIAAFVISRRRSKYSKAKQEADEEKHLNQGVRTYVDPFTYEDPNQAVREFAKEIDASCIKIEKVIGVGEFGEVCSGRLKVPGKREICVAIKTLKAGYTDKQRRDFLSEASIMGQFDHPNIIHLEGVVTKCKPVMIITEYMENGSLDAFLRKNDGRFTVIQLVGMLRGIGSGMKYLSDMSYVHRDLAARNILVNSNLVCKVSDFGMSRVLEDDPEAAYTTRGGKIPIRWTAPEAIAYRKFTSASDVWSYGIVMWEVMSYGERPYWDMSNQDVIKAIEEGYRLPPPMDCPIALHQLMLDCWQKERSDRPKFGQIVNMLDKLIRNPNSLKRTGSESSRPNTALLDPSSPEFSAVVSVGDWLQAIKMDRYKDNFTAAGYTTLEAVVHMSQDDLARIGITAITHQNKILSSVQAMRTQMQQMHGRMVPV
In a further assay the target is T2, Ephrin type-A receptor 6 (Mus musculus, UniProt Q62413).
T2 sequence (Q62413 whole entry): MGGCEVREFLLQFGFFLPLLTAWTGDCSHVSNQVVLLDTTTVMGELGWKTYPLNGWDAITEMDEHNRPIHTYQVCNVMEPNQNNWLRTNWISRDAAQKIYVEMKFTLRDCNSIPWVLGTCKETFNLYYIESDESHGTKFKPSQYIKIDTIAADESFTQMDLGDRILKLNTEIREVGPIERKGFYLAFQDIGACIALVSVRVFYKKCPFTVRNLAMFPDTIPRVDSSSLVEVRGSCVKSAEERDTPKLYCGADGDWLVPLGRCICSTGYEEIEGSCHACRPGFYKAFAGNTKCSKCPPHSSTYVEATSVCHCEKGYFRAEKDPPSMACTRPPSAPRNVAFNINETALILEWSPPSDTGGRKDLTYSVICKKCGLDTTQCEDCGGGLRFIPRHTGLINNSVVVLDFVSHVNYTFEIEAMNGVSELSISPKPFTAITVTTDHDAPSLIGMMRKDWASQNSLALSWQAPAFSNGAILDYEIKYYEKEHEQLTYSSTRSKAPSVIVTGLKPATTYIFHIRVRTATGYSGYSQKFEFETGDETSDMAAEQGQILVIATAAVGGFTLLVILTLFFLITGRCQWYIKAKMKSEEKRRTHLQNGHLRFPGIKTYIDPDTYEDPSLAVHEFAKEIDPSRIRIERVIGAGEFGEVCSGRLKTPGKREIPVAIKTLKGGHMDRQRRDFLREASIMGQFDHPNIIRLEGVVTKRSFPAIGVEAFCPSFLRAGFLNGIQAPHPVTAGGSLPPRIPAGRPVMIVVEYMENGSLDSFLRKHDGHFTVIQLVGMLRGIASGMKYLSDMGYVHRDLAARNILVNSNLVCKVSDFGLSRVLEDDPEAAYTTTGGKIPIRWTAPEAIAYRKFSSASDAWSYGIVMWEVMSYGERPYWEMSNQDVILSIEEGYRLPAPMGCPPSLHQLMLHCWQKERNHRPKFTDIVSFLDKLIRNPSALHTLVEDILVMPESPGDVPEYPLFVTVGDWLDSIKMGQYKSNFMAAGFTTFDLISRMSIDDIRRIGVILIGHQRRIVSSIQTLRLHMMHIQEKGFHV
Description: Displacement of biotinylated Fc-tagged ephrin-A1 from recombinant N/C-terminal 6-his tagged mouse EphA6 (Ser28 to Gln546 residues) preincubated for 1 hr followed by ephrin-A1-Fc addition and measured after 4 to 5 hrs by ELISA assay.

Another assay concerns the target Ephrin type-A receptor 7 (Mus musculus, UniProt Q61772). Description: Displacement of biotinylated Fc-tagged ephrin-A1 from recombinant N/C-terminal 6-his tagged mouse EphA7 (Ala30 to Pro549 residues) preincubated for 1 hr followed by ephrin-A1-Fc addition and measured after 4 to 5 hrs by ELISA assay.

Sequence of Ephrin type-A receptor 7 (Q61772 whole entry): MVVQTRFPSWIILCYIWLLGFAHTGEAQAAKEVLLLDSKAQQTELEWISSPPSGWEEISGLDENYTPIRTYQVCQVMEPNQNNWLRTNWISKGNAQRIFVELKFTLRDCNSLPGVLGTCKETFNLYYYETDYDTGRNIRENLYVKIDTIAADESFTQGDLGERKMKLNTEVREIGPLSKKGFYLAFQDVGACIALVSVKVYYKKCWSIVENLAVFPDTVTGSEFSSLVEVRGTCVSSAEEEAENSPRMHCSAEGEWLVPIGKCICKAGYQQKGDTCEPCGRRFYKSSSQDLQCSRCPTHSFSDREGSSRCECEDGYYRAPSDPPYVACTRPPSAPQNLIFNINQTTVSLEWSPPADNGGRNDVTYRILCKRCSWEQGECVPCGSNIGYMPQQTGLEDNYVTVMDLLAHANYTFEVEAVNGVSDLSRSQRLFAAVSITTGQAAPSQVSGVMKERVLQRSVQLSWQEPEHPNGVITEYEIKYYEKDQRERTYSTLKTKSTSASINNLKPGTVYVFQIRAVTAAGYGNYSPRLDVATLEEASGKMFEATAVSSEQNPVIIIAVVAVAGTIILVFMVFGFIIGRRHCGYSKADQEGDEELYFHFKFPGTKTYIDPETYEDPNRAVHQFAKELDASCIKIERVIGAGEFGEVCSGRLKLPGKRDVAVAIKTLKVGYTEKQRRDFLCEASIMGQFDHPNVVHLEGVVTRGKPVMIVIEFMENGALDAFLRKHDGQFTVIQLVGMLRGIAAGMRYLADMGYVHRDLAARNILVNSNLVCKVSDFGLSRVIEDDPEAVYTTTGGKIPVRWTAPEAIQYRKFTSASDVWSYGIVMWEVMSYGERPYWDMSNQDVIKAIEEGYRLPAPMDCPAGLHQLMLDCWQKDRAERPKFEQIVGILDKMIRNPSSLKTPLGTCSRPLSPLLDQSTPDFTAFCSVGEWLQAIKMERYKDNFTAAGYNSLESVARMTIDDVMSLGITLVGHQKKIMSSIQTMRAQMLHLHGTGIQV

Consider `C[C@H](CCC(=O)N[C@H](CC(=O)O)Cc1cn(S(=O)(=O)c2ccccc2)c2ccccc12)[C@H]1CC[C@H]2[C@@H]3CC=C4C[C@@H](O)CC[C@]4(C)[C@H]3CC[C@]12C`, for which the pIC50 on Ephrin type-A receptor 5 is 5.00; on Ephrin type-A receptor 3 it was 4.96; on Ephrin type-A receptor 4, 5.20; at Ephrin type-A receptor 6 it was 4.96; at Ephrin type-A receptor 7, 4.66.
In the case of `C[C@H](CCC(=O)N[C@H](CC(=O)O)Cc1cn(S(=O)(=O)c2ccc(C(F)(F)F)cc2)c2ccccc12)[C@H]1CC[C@H]2[C@@H]3CC=C4C[C@@H](O)CC[C@]4(C)[C@H]3CC[C@]12C`, the pIC50 at Ephrin type-A receptor 5 was 5.03; at Ephrin type-A receptor 3 it was 5.12; on Ephrin type-A receptor 4, 5.38; at Ephrin type-A receptor 6, 5.00; on Ephrin type-A receptor 7 it was 4.82.
On to `C[C@H](CCC(=O)N[C@H](CC(=O)O)Cc1c[nH]c2ccccc12)[C@H]1CC[C@H]2[C@@H]3CC=C4C[C@@H](O)CC[C@]4(C)[C@H]3CC[C@]12C`, for which the pIC50 on Ephrin type-A receptor 5 is 5.52; on Ephrin type-A receptor 3, 5.39; at Ephrin type-A receptor 4, 5.55; at Ephrin type-A receptor 6, 5.54; on Ephrin type-A receptor 7, 5.35.
